Assay results taken from patent US20250360167A1 (Keryx Biopharmaceuticals, Inc., priority 2013, published 2025).

Assay: BET active surface area
Format: physicochemical
Description: BET theory explains the physical adsorption of gas molecules onto a solid surface. The theory serves as the basis for the measurement of the specific surface area of a material. This theory allows the calculation of surface areas of materials in a very accurate manner and is thus capable of distinguishing differences between separate preparations of what would otherwise appear to be the same material. For example, activated carbon is a form of carbon that has been processed to make it extremely porous and thus to have a very large surface area. Activated carbon has been experimentally determined, using calculations derived from BET theory, to have a surface area of around 3000 m^2 g^−1.

[1] = Table 1, one value given per pair of samples

Structure (SMILES)	BET Active Surface Area [1]	BET Active Surface Area (Tables 2 and 3) [m^2/g]
O=C([O-])CC(O)(CC(=O)[O-])C(=O)[O-].[Fe+3] [RFS-12-1]	0.61	0.61
O=C([O-])CC(O)(CC(=O)[O-])C(=O)[O-].[Fe+3] [STM-182-1]	19.85	
